{
  "source": "paper PMC12571268",
  "about": "“Functional expression of a Mo-dependent formate dehydrogenase in Escherichia coli under aerobic conditions” (PLOS One, 2025)",
  "target": "T1, TsFDH (formate dehydrogenase of Thiobacillus sp. KNK65MA) (Thiobacillus sp. KNK65MA, UniProt Q76EB7)",
  "T1 construct": "gene fdh65MA; full-length synthetic gene codon-optimized for E. coli on pZE plasmid pGEN1395 in E. coli delta-lpd; clarified lysate; metal-independent",
  "T1 sequence (Q76EB7 1-401)": "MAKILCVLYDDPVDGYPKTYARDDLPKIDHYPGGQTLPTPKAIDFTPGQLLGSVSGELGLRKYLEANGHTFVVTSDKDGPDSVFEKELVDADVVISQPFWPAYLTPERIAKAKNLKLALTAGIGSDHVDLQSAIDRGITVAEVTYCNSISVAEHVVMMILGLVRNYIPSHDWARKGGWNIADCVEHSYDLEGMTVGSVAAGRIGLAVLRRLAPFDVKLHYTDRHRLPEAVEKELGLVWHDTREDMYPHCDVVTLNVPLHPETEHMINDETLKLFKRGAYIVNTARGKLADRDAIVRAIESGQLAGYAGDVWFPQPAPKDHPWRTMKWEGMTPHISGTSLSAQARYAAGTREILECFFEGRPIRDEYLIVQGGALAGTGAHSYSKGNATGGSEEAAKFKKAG",
  "experiment": "NADH formation at […] nm in clarified lysate, blank without formate subtracted",
  "format": "biochemical",
  "conditions": "100 mM formate, 5 mM NAD+, 100 mM Tris pH 9.0; plasmid-free strains as control",
  "data": [
    {"smiles": "O=CO", "note": "[formate]", "values": [
      {"measurement": "NADH formation at 340 nm in clarified lysate, blank without formate subtracted", "result": "lysates of the strains containing the FDH from Thiobacillus yielded higher specific activity"}
    ]}
  ]
}
